Measured values: patent US5811421A, “Naphthyl and dihydronaphthyl intermediates, compounds, compositions, and methods” (Eli Lilly and Company, priority 1996, dated 1998)
Structures can show the parent of a compound that is named as a salt. Blank lines part the entries; values can stand above or below the compound they belong to.

Tests used:
[1] = system: ovariectomized rats (uterus); experiment: Uterine weight in ovariectomized (OVX) rats, 4-day oral dosing; assay type: in vivo, female Sprague Dawley rats; details: for Uterine Weight (% increase vs. OVX): OVX rats
Method: (§1) In the examples illustrating the methods of the present invention, a post-menopausal model was used in which effects of different treatments upon circulating lipids were determined.
(§2) Seventy-five day old female Sprague Dawley rats (weight range of 200 to 225g) were obtained from Charles River Laboratories (Portage, MI). The animals were either bilaterally ovariectomized (OVX) or exposed to a Sham surgical procedure at Charles River Laboratories, and then shipped after one week. Upon arrival, they were housed in metal hanging cages in groups of 3 or 4 per cage and had ad libitum access to food (calcium content approximately 0.5%) and water for one week. Room temperature was maintained at 22.2°±1.7° C. with a minimum relative humidity of 40%. The photoperiod in the room was 12 hours light and 12 hours dark.
(§3) Dosing Regimen Tissue Collection. After a one week acclimation period (therefore, two weeks post-OVX) daily dosing with test compound was initiated. 17α-ethynyl estradiol or the test compound were given orally, unless otherwise stated, as a suspension in 1% carboxymethylcellulose or dissolved in 20% cyclodextrin. Animals were dosed daily for 4 days. Following the dosing regimen, animals were weighed and anesthetized with a ketamine: xylazine (2:1, V:V) mixture and a blood sample was collected by cardiac puncture. The animals were then sacrificed by asphyxiation with CO2, the uterus was removed through a midline incision, and a wet uterine weight was determined.
(§4) Data presented in Table 1 below show comparative results among ovariectomized rats, rats treated with 17α-ethynyl estradiol (EE2; an orally available form of estrogen), and rats treated with certain compounds of the present invention. […] This uterine response to estrogen is well recognized in the art.
(§5) The data presented in the Tables 1 below reflects the response of 5 to 6 rats per treatment.

[2] = system: Uterine Eosinophil Peroxidase (EPO); experiment: Uterine Eosinophil Peroxidase (EPO) Assay / eosinophil infiltration into the uterus of ovariectomized rats; assay type: in vivo, female Sprague Dawley rats; design: Uterine EPO (V. max): unit not given here; details: for Uterine EPO (V. max): OVX rats, oral
Method: as §1, §2, §3
Uterine Eosinophil Peroxidase (EPO) Assay. Uteri were kept at 4° C. until time of enzymatic analysis. The uteri were then homogenized in 50 volumes of 50 mM Tris buffer (pH-8.0) containing 0.005% Triton X-100. Upon addition of 0.01% hydrogen peroxide and 10 mM O-phenylenediamine (final concentrations) in Tris buffer, increase in absorbance was monitored for one minute at 450 nm. The presence of eosonophils in the uterus is an indication of estrogenic activity of a compound. The maximal velocity of a 15 second interval was determined over the initial, linear portion of the reaction curve.
As is expressed in the below data, estrogenicity also was assessed by evaluating the adverse response of eosinophil infiltration into the uterus.
as §5

serum cholesterol = experiment: Serum cholesterol in ovariectomized rats, 4-day oral dosing; assay type: in vivo, female Sprague Dawley rats; details: for Serum Cholesterol (% decrease vs. OVX): OVX rats
Method: as §1, §2, §3
Cholesterol Analysis. Blood samples were allowed to clot at room temperature for 2 hours, and serum was obtained following centrifugation for 10 minutes at 3000 rpm. Serum cholesterol was determined using a Boehringer Mannheim Diagnostics high performance cholesterol assay. Briefly the cholesterol was oxidized to cholest-4-en-3-one and hydrogen peroxide. The hydrogen peroxide was then reacted with phenol and 4-amino-phenazone in the presence of peroxidase to produce a p-quinone imine dye, which was read spectrophotemetrically at 500 nm. Cholesterol concentration was then calculated against a standard curve. The entire assay was automated using a Biomek Automated Workstation.
as §4, §5

[3] = system: MCF-7 breast adenocarcinoma cells; experiment: MCF-7 Proliferation Assay; assay type: cell-based; details: Homo sapiens, MCF7; MCF-7 cells, tritiated thymidine incorporation, 48 hours
Method: MCF-7 Proliferation Assay MCF-7 breast adenocarcinoma cells (ATCC HTB 22) were maintained in MEM (minimal essential medium, phenol red- free, Sigma, St. Louis, Mo.) supplimented with 10% fetal bovine serum (FBS) (V/V), L-glutamine (2 mM), sodium pyruvate (1 mM), HEPES {(N-[2-hydroxyethyl]piperazine-N'-[2-ethanesulfonic acid]10 mM}, non-essential amino acids and bovine insulin (1 ug/mL) (maintenance medium). Ten days prior to assay, MCF-7 cells were switched to maintenance medium supplemented with 10% dextran coated charcoal stripped fetal bovine serum (DCC-FBS) assay medium) in place of 10% FBS to deplete internal stores of steroids. MCF-7 cells were removed from maintenance flasks using cell dissociation medium (Ca++/Mg++free HBSS (phenol red-free) supplemented with 10 mM HEPES and 2 mM EDTA). Cells were washed twice with assay medium and adjusted to 80,000 cells/mL. Approximately 100 μL (8,000 cells) were added to flat-bottom microculture wells (Costar 3596) and incubated at 37° C. in a 5% CO2 humidified incubator for 48 hours to allow for cell adherence and equilibration after transfer. Serial dilutions of drugs or DMSO as a diluent control were prepared in assay medium and 50 μL transferred to triplicate microcultures followed by 50 μL assay medium for […]. After an additional 48 hours at 37° C. in a 5% CO2 humidified incubator, microcultures were pulsed with tritiated thymidine (1 uCi/well) for 4 hours. Cultures were terminated by freezing at -70° C. for 24 hours followed by thawing and harvesting of microcultures using a Skatron Semiautomatic Cell Harvester. Samples were counted by liquid scintillation using a Wallac BetaPlace β counter. Results in Table 4 below show the IC50 for certain compounds of the present invention.

[4] = system: proximal tibiae metaphysis (bone mineral density) of ovariectomized rats; experiment: Osteoporosis Test Procedure: protection against bone loss in ovariectomized rats, 35 days; assay type: in vivo; details: oral; for Tibia BMD pQCT (% protection): OVX rats
Text: Seventy-five day old female Sprague Dawley rats (weight range of 200 to 225g) were obtained from Charles River Laboratories (Portage, MI). The animals were either bilaterally ovariectomized (OVX) or exposed to a Sham surgical procedure at Charles River Laboratories, and then shipped after one week. Upon arrival, they were housed in metal hanging cages in groups of 3 or 4 per cage and had ad libitum access to food (calcium content approximately 0.5%) and water for one week. Room temperature was maintained at 22.2°±1.7° C. with a minimum relative humidity of 40%. The photoperiod in the room was 12 hours light and 12 hours dark. Following the General Preparation Procedure, infra, the rats were treated daily for 35 days (6 rats per treatment group) and sacrificed by carbon dioxide asphyxiation on the 36th day. The 35 day time period was sufficient to allow maximal reduction in bone density, measured as described herein. At the time of sacrifice, the uteri were removed, dissected free of extraneous tissue, and the fluid contents were expelled before determination of wet weight in order to confirm estrogen deficiency associated with complete ovariectomy. […] The uteri were then placed in 10% neutral buffered formalin to allow for subsequent histological analysis. The right femurs were excised and digitilized x-rays generated and analyzed by an image analysis program (NIH image) at the distal metaphysis. The proximal aspect of the tibiae from these animals were also scanned by quantitative computed tomography. In accordance with the above procedures, compounds of the present invention and ethynyl estradiol (EE2) in 20% hydroxypropyl β-cyclodextrin were orally administered to test animals. Proximal tibiae metaphysis data presented in Table 2 are the results of formula I compound treatments compared to intact and ovariectomized test animals. Results are reported as percent protection against bone loss which was calculated for individual animals by the following formula: % protection=(BMDtest BMDovx)/(BMDsham -BMDovx)×100.

[5] = 0.1 mg/kg daily for 35 days, values marked * (two tailed Student's T Test)

IC50 [3]: 10 nM
Compound: CCc1ccc2cc(O)ccc2c1Cc1ccc(OCCN2CCCCC2)cc1 [Example 1, [2-Ethyl-6-hydroxynaphthalen-1-yl][4-[2-(1-piperdinyl)ethoxy]phenyl]methanehydrochloride]
Uterine Weight (% increase vs. OVX) ([1]; 0.1 mg/kg daily for 4 days): -3.3% | Uterine Weight (% increase vs. OVX) ([1]; 1.0 mg/kg daily for 4 days): 3.0% | Uterine Weight (% increase vs. OVX) ([1]; 10.0 mg/kg daily for 4 days): 60.2% | Uterine EPO (V. max) ([2]; 0.1 mg/kg daily for 4 days): 6.6 | Uterine EPO (V. max) ([2]; 1.0 mg/kg daily for 4 days): 12.0 | Uterine EPO (V. max) ([2]; 10.0 mg/kg daily for 4 days): 12.0 | Serum Cholesterol (% decrease vs. OVX) (serum cholesterol; 0.1 mg/kg daily for 4 days): 20.3% | Serum Cholesterol (% decrease vs. OVX) (serum cholesterol; 1.0 mg/kg daily for 4 days): 23.1% | Serum Cholesterol (% decrease vs. OVX) (serum cholesterol; 10.0 mg/kg daily for 4 days): 38.6%

Compound: C#C[C@]1(O)CC[C@H]2[C@@H]3CCc4cc(O)ccc4[C@H]3CC[C@@]21C [EE2, 17α-ethynyl estradiol, reference compound]
Uterine weight (in words) ([1]; 0.1 mg/kg/day): uterine weight was substantially greater than the uterine weight of ovariectomized test animals | Uterine Weight (% increase vs. OVX) ([1]; 0.1 mg/kg daily for 4 days): 86.3% | Tibia BMD pQCT (% protection) [4, 5]: 60.9% | prevention of bone loss (in words) ([4]; ovariectomized rats, 35 days): prevented this loss | Uterine EPO (V. max) ([2]; 0.1 mg/kg daily for 4 days): 116.4 | eosinophil infiltration into the uterus (in words) ([2]; stromal layer of ovariectomized rats): substantial, expected increase in eosinophil infiltration | Serum cholesterol (in words) (serum cholesterol; 0.1 mg/kg/day): caused a decrease in serum cholesterol | Serum Cholesterol (% decrease vs. OVX) (serum cholesterol; 0.1 mg/kg daily for 4 days): 81.4%

IC50 [3]: 10 nM
Compound: COc1ccc2c(Cc3ccc(OCCN4CCCCC4)cc3)c(C3CCCCC3)ccc2c1 [Example 5, [2-Cyclohexyl-6-methoxynaphthalen-1-yl][4-[2-(1-piperdinyl)ethoxy]phenyl]methane]
Uterine Weight (% increase vs. OVX) ([1]; 0.1 mg/kg daily for 4 days): 21.2% | Uterine Weight (% increase vs. OVX) ([1]; 1.0 mg/kg daily for 4 days): 10.4% | Uterine Weight (% increase vs. OVX) ([1]; 10.0 mg/kg daily for 4 days): 6.4% | Uterine EPO (V. max) ([2]; 0.1 mg/kg daily for 4 days): 21.2 | Uterine EPO (V. max) ([2]; 1.0 mg/kg daily for 4 days): 4.2 | Uterine EPO (V. max) ([2]; 10.0 mg/kg daily for 4 days): 5.3 | Serum Cholesterol (% decrease vs. OVX) (serum cholesterol; 0.1 mg/kg daily for 4 days): 77.6% | Serum Cholesterol (% decrease vs. OVX) (serum cholesterol; 1.0 mg/kg daily for 4 days): 76.3% | Serum Cholesterol (% decrease vs. OVX) (serum cholesterol; 10.0 mg/kg daily for 4 days): 65.8%

IC50 [3]: 1 nM
Compound: Oc1ccc2c(Cc3ccc(OCCN4CCCCC4)cc3)c([C@H]3CC[C@H](O)CC3)ccc2c1 [Example 2, hydrochloride]
Uterine Weight (% increase vs. OVX) ([1]; 0.1 mg/kg daily for 4 days): 32.0% | Uterine Weight (% increase vs. OVX) ([1]; 1.0 mg/kg daily for 4 days): 17.1% | Uterine Weight (% increase vs. OVX) ([1]; 10.0 mg/kg daily for 4 days): 6.7% | Uterine EPO (V. max) ([2]; 0.1 mg/kg daily for 4 days): 4.8 | Uterine EPO (V. max) ([2]; 1.0 mg/kg daily for 4 days): 4.8 | Uterine EPO (V. max) ([2]; 10.0 mg/kg daily for 4 days): 3.6 | Serum Cholesterol (% decrease vs. OVX) (serum cholesterol; 0.1 mg/kg daily for 4 days): 57.8% | Serum Cholesterol (% decrease vs. OVX) (serum cholesterol; 1.0 mg/kg daily for 4 days): 71.8% | Serum Cholesterol (% decrease vs. OVX) (serum cholesterol; 10.0 mg/kg daily for 4 days): 34.9%

Compound: COc1ccc2c(c1)CCC(C1CCCCC1)=C2C(=O)c1ccc(OCCN2CCCCC2)cc1 [Example 4, [3,4-Dihydro-2-cyclohexyl-6-methoxynaphthalen-1-yl][4-[2-(1-piperdinyl)ethoxy]phenyl]methanone]
Uterine Weight (% increase vs. OVX) ([1]; 0.1 mg/kg daily for 4 days): 32.0% | Uterine Weight (% increase vs. OVX) ([1]; 1.0 mg/kg daily for 4 days): 30.7% | Uterine Weight (% increase vs. OVX) ([1]; 10.0 mg/kg daily for 4 days): 24.2% | Uterine EPO (V. max) ([2]; 0.1 mg/kg daily for 4 days): 2.1 | Uterine EPO (V. max) ([2]; 1.0 mg/kg daily for 4 days): 8.1 | Uterine EPO (V. max) ([2]; 10.0 mg/kg daily for 4 days): 10.6 | Serum Cholesterol (% decrease vs. OVX) (serum cholesterol; 0.1 mg/kg daily for 4 days): 65.5% | Serum Cholesterol (% decrease vs. OVX) (serum cholesterol; 1.0 mg/kg daily for 4 days): 56.6% | Serum Cholesterol (% decrease vs. OVX) (serum cholesterol; 10.0 mg/kg daily for 4 days): 58.3%

IC50 [3]: 0.6 nM
Compound: Oc1ccc2c(Cc3ccc(OCCN4CCCCC4)cc3)c(C3CCCCC3)ccc2c1 [Example 6, [2-Cyclohexyl-6-hydroxynaphthalen-1-yl][4-[2-(1-piperdinyl)ethoxy]phenyl]methane hydrochloride]
Uterine Weight (% increase vs. OVX) ([1]; 0.1 mg/kg daily for 4 days): 65.7% | Uterine Weight (% increase vs. OVX) ([1]; 1.0 mg/kg daily for 4 days): 22.8% | Uterine Weight (% increase vs. OVX) ([1]; 10.0 mg/kg daily for 4 days): 22.0% | Tibia BMD pQCT (% protection) ([4]; 0.01 mg/kg daily for 35 days): 23.1% | Tibia BMD pQCT (% protection) [4, 5]: 52.6% | Tibia BMD pQCT (% protection) ([4]; 1.0 mg/kg daily for 35 days): 30.1% | Tibia BMD pQCT (% protection) ([4]; 3.0 mg/kg daily for 35 days, value marked * (two tailed Student's T Test)): 59.6% | Uterine EPO (V. max) ([2]; 0.1 mg/kg daily for 4 days): 17.7 | Uterine EPO (V. max) ([2]; 1.0 mg/kg daily for 4 days): 4.2 | Uterine EPO (V. max) ([2]; 10.0 mg/kg daily for 4 days): 4.5 | Serum Cholesterol (% decrease vs. OVX) (serum cholesterol; 0.1 mg/kg daily for 4 days): 57.4% | Serum Cholesterol (% decrease vs. OVX) (serum cholesterol; 1.0 mg/kg daily for 4 days): 46.8% | Serum Cholesterol (% decrease vs. OVX) (serum cholesterol; 10.0 mg/kg daily for 4 days): 63.9%
